Data set [1] is classed as in vivo. The settings on record: for Mortality/Morbidity: animals found dead or euthanized prior to scheduled euthanasia/number in group.
Data set [2] can be described thus: Twenty-four hour ocular pharmacokinetics of ^14C-labeled bromfenac following topical instillation. Type of data set: in vivo, New Zealand White rabbit. How it is done:
Twenty-four hour ocular pharmacokinetics of a formulation of ^14C-labeled bromfenac following topical instillation in New Zealand White rabbit eyes was evaluated. ^14C-labeled bromfenac was analyzed to verify the radioactive purity prior to use. Dosing solutions were prepared and analyzed after dosing to confirm the radiochemical purity of the dosing solution. The radioactive concentration of the dosing solutions was calculated by liquid scintillation counting (LSC). Treatment parameters are summarized below:
On Day 1, 50 μL of the dosing solution was topically instilled into both eyes of each animal. Animals were weighed at randomization and prior to dosing on Day 1. Animals were euthanized by an intravenous injection of a commercial euthanasia solution at 1 hour±5 minutes, 2 hours±15 minutes, 4 hours±15 minutes, 8 hours±15 minutes, 12 hours±15 minutes, or 24 hours±15 minutes following dosing. After euthanasia, each eye was rinsed with normal saline. Aqueous humor was collected from both eyes and the weight was recorded. The globes were enucleated and frozen in liquid nitrogen. The globes were stored at ≤−70° C. prior to dissection. The iris/ciliary body, lens, vitreous, retina, choroid, sclera, conjunctiva, and cornea were collected from each eye, weighed, and stored at ≤−15° C. prior to analysis. Aqueous humor samples were stored at ≤−15° C. until analyzed.
All radioactivity measurements were performed using a Beckman Liquid Scintillation Spectrometer. The iris/ciliary body, lens, retina, choroid, sclera, conjunctiva, and cornea from each eye were weighed into combustion cones and combusted. Duplicate aliquots of each aqueous humor sample and each vitreous humor sample were transferred to LSC vials using Insta-Gel as the scintillation fluid and the amount of radioactivity was determined.
The dosing solution was prepared by weighing 2.41 mg of ^14C-labeled bromfenac sodium and dissolving into 3 mL diluent to achieve a non-radioactive concentration of 0.7 mg/mL (0.07% w/v) bromfenac free acid, a radioactive concentration of 129.7 μCi/mL, and a pH of 7.8.
On Day 1, 50 μL of the dosing solution was topically instilled into both eyes of each animal. The dosing solution was instilled into the conjunctival sac using a calibrated pipette, and the eyelid was held closed for 5-10 seconds following the dose. Any dosing solution found at the margin of the eyelid after dosing was recovered with a Lasik spear. The time of each dose administration was recorded.
Animals were euthanized by an intravenous injection of a commercial euthanasia solution at 1 hour±5 minutes, 2 hours±15 minutes, 4 hours±15 minutes, 8 hours±15 minutes, 12 hours±15 minutes, or 24 hours±15 minutes following dosing.
After euthanasia, each eye was rinsed with normal saline. Aqueous humor was collected from both eyes and the weight was recorded. The globes were enucleated and frozen in liquid nitrogen. The globes were stored at ≤−70° C. prior to dissection. The iris/ciliary body, lens, vitreous, retina, choroid, sclera, conjunctiva, and cornea were collected from each eye, weighed, and stored at ≤−15° C. prior to analysis. The start time of necropsy was recorded. Aqueous humor samples were stored at ≤−15° C. until analyzed.
The iris/ciliary body, lens, retina, choroid, sclera, conjunctiva, and cornea from each eye were weighed into combustion cones and combusted with the exception of the left eye from Animal No. 731. The retina, choroid, and cornea from this eye were lost during processing and could not be recovered. No radioactivity data is available for these tissues.
Combusted samples were trapped in […] (RJ Harvey) present in LSC vials and the amount of radioactivity determined by LSC. Duplicate aliquots of each aqueous humor sample (approximately 25 μL) were transferred to LSC vials and the amount of radioactivity was determined by LSC using Insta-Gel as the scintillation fluid. […]

Where [3] appears, read: Group A, 1 hr. post-dose, 0.07% pH 7.8, 50 μL per eye topical.
[4] abbreviates: Group B, 2 hr. post-dose, 0.07% pH 7.8, 50 μL per eye topical.
The mark [5] stands for this setting: Group C, 4 hr. post-dose, 0.07% pH 7.8, 50 μL per eye topical.
[6] abbreviates: Group D, 8 hr. post-dose, 0.07% pH 7.8, 50 μL per eye topical.

Values joined by “and” are separate entries in the source; they are usually repeats but may differ in a detail not shown here. Equal entries are not always repeated. Where two headings read alike, the source gives them in different places.

This note sets out measurements from patent publication US10085958B2, “Bromfenac bioavailability” (BAUSCH & LOMB PHARMA HOLDINGS CORP., priority 2011, dated 2018).

On to `Nc1c(CC(=O)O)cccc1C(=O)c1ccc(Br)cc1` [^14C-labeled Bromfenac], for which the Mortality/Morbidity in data set [1] (Group A, necropsy 1 hour post-dose) is on record as 0/3; in data set [1] (Group B, necropsy 2 hours post-dose) it was 0/3; in data set [1] (Group C, necropsy 4 hours post-dose), 0/3; in data set [1] (Group D, necropsy 8 hours post-dose) it was 0/3; in data set [1] (Group E, necropsy 12 hours post-dose), 0/3; in data set [1] (Group F, necropsy 24 hours post-dose) it was 0/3. For the same compound, the “Mortality, whole study” value in data set [1] (all groups, up to 24 hours after 50 μL 0.07% per eye) is reported as “no mortality”. Besides, in data set [2] (24 hour study period), the “Radioactivity detected by LSC in the lens and the vitreous humor” value is “very low and close to background values”. Besides, the “Radioactive residues, Total of eye tissues, Mean” value was determined as 1.187 Percent Dose in data set [2] (setting [3]); 0.867 Percent Dose in data set [2] (setting [4]); 0.550 Percent Dose in data set [2] (setting [5]); 0.228 Percent Dose in data set [2] (setting [6]); 0.107 Percent Dose in data set [2] (Group E, 12 hr. post-dose, 0.07% pH 7.8, 50 μL per eye topical); 0.034 Percent Dose in data set [2] (Group F, 24 hr. post-dose, 0.07% pH 7.8, 50 μL per eye topical). Further, the “Radioactive residues, Total of eye tissues, single eyes OD/OS” value in data set [2] (setting [3]) is 0.954 Percent Dose and 1.172 Percent Dose and 1.011 Percent Dose and 1.423 Percent Dose and 1.185 Percent Dose and 1.374 Percent Dose; in data set [2] (setting [4]), 0.923 Percent Dose and 0.762 Percent Dose and 0.782 Percent Dose and 1.246 Percent Dose and 0.725 Percent Dose and 0.761 Percent Dose. Moreover, in data set [2] (setting [5]), the “Radioactive residues in Conjunctiva, Mean” value is listed as 0.142 Percent Dose. For the same compound, in data set [2] (setting [6]), the “Radioactive residues in Cornea, Mean” value was 0.471 ppm (μg-eq/g). In addition, the “Tissues with the highest concentrations of drug-derived radioactivity” value in data set [2] (mean ppm (μg/g), 24 hour study period) was “cornea, conjunctiva, and sclera”.
